Source: ChEMBL document CHEMBL1138100 (Bioorg Med Chem Lett, 2006)

Legend:
[1] = molecular target: Inosine-5'-monophosphate dehydrogenase 2 (Homo sapiens, UniProt P12268); test: Inhibition of human IMPDH2
[2] = molecular target: Inosine-5'-monophosphate dehydrogenase 1 (Homo sapiens, UniProt P20839); test: Inhibition of human IMPDH1
[3] = molecular target: Inosine-5'-monophosphate dehydrogenase (IMPDH) (Homo sapiens) (UniProt P20839+P12268); test: Selectivity for IMPDH1 over IMPDH2; type: protein assay
Inosine-5'-monophosphate dehydrogenase (IMPDH) (Homo sapiens), sequence (P20839 whole entry, looked up, other chains not shown): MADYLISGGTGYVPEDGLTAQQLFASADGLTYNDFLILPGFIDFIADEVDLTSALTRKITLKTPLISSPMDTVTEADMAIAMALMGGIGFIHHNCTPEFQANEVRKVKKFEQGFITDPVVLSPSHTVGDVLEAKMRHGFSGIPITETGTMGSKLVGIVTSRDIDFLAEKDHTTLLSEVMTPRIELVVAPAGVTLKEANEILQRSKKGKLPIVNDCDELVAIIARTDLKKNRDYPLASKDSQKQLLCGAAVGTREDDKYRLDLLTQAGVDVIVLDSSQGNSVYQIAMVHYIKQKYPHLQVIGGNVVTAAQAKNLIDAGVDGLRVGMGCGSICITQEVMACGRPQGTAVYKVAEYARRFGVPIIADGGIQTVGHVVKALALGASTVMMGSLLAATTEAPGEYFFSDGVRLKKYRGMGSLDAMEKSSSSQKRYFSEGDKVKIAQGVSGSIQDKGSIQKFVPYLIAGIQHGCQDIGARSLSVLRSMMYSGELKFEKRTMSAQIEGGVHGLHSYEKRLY

Inosine-5'-monophosphate dehydrogenase 1, sequence (P20839 whole entry): as the sequence (P20839 whole entry, looked up, other chains not shown) above

| Compound | IC50 [1] [µM] | IC50 [2] [µM] | Selectivity ratio [3] |
| --- | --- | --- | --- |
| COc1c(C)c2c(c(O)c1C/C=C(\C)CCP(=O)(O)O)C(=O)OC2 | 0.096 | – | – |
| CCc1c(C)c2c(c(O)c1C/C=C(\C)CN(C)CCP(=O)(O)O)C(=O)OC2 | 0.132 | – | – |
| COc1c(C)c2c(c(O)c1C/C=C(\C)CN(CCP(=O)(O)O)C(C)=O)C(=O)OC2 | 0.785 | – | – |
| COc1c(C)c2c(c(O)c1C/C=C(\C)CP(=O)(O)O)C(=O)OC2 | 0.168 | – | – |
| COc1c(C)c2c(c(O)c1C/C=C(\C)CCCP(=O)(O)O)C(=O)OC2 | 0.086 | – | – |
| COc1c(C)c2c(c(O)c1C/C=C(\C)CN(CCP(=O)(O)O)S(C)(=O)=O)C(=O)OC2 | 0.498 | – | – |
| COc1c(C)c2c(c(O)c1C/C=C(\C)CNCP(=O)(O)O)C(=O)OC2 | > 1 | – | – |
| CCc1c(C)c2c(c(O)c1C/C=C(\C)CN(CCP(=O)(O)O)S(N)(=O)=O)C(=O)OC2 | 0.024 | – | – |
| CCc1c(C)c2c(c(O)c1C/C=C(\C)CNCCP(=O)(O)O)C(=O)OC2 | 0.013 | 0.037 | 2.8 |
| COc1c(C)c2c(c(O)c1CC=C(C)C)C(=O)OC2 | 0.254 | – | – |
| CCc1c(C)c2c(c(O)c1C/C=C(\C)CP(=O)(O)O)C(=O)OC2 | 0.02 | 0.071 | 3.6 |
| COc1c(C)c2c(c(O)c1C/C=C(\C)CN(CCP(=O)(O)O)S(N)(=O)=O)C(=O)OC2 | 0.093 | – | – |
| COc1c(C)c2c(c(O)c1C/C=C(C)/C=C/P(=O)(O)O)C(=O)OC2 | 0.506 | – | – |
| CCc1c(C)c2c(c(O)c1C/C=C(\C)COCP(=O)(O)O)C(=O)OC2 | 0.023 | 0.038 | 1.7 |
| CCOP(=O)(CCNC/C(C)=C/Cc1c(O)c2c(c(C)c1OC)COC2=O)OCC | > 1 | – | – |
| COc1c(C)c2c(c(O)c1C/C=C(\C)CP(=O)(OC)OC)C(=O)OC2 | 0.289 | – | – |
| COc1c(C)c2c(c(O)c1C/C=C(\C)CN(C)CCP(=O)(O)O)C(=O)OC2 | > 1 | – | – |
| COc1c(C)c2c(c(O)c1C/C=C(\C)COCP(=O)(O)O)C(=O)OC2 | 0.246 | – | – |
| COc1c(C)c2c(c(O)c1C/C=C(\C)CCC(=O)O)C(=O)OC2 [MYCOPHENOLIC ACID] | – | 0.032 | – |
| COc1c(C)c2c(c(O)c1C/C=C(\C)CN(C=O)CCP(=O)(O)O)C(=O)OC2 | 0.749 | – | – |
| CCc1c(C)c2c(c(O)c1C/C=C(\C)CN(CCP(=O)(O)O)S(C)(=O)=O)C(=O)OC2 | 0.068 | – | – |
| COc1c(C)c2c(c(O)c1C/C=C(\C)CNCCP(=O)(O)O)C(=O)OC2 | 0.499 | – | – |
| COC/C(C)=C/Cc1c(O)c2c(c(C)c1OC)COC2=O | 0.273 | – | – |
